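Cells were grown in 96-well plates and exposed to each compound for 48 hours at five concentrations; endpoints were interpolated linearly between bracketing concentrations, or set to the highest concentration if not reached. At the GI50, growth is halved.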 Calls of active or inactive are those of the source. Rule as the data show it: active = GI50 up to about 1.1 µM and inactive = higher.
Columns and labels:
Assay in all cases: NCI-60 cell line screen, 48 h
LXFL 529 = tested on: LXFL 529
DLD-1 = tested on: DLD-1
KM-20L2 = tested on: KM-20L2
M19-MEL = tested on: M19-MEL
DMS-114 = tested on: DMS-114
RXF 631 = tested on: RXF 631
Hs-578T = tested on: Hs-578T

Measured: GI50

N#CCCOCN(CO)c1nc(N(CO)COCCC#N)nc(N(CO)COCCC#N)n1
inactive: LXFL 529 17 µM | DLD-1 26.7 µM | KM-20L2 25.9 µM | M19-MEL 23.8 µM | DMS-114 24.3 µM

CCC(=O)C(C(=O)CC)c1c(OC(=O)c2ccccc2)ccc(O)c1C(=O)OC
inactive: LXFL 529 > 100 µM | KM-20L2 > 100 µM | M19-MEL > 100 µM | RXF 631 > 100 µM

CCOP(=O)(OCC)C1CCCOC1=O (stereo unspecified)
inactive: LXFL 529 > 100 µM | DLD-1 > 100 µM | KM-20L2 > 100 µM | M19-MEL > 100 µM | DMS-114 > 100 µM | RXF 631 > 100 µM

Cc1cc2c(C)nn(Cc3ccc(Cl)cc3)c2c(C#N)c1C
inactive: LXFL 529 > 100 µM | KM-20L2 > 100 µM | M19-MEL > 100 µM | RXF 631 > 100 µM

CCc1ccccc1NC(=O)C1=C(C)NC(C)=C(C(=O)Nc2ccccc2CC)C1c1cccc([N+](=O)[O-])c1
inactive: LXFL 529 26.2 µM | DLD-1 19.9 µM | KM-20L2 31 µM | M19-MEL 44.7 µM | DMS-114 30.1 µM | RXF 631 46.3 µM

C=C(c1ccccc1)c1cc2c(=O)[nH]ccc2n1C
inactive: LXFL 529 35.6 µM | DLD-1 31.9 µM | KM-20L2 23.3 µM | M19-MEL 38.6 µM | DMS-114 19.1 µM

C1=CC(=P(c2ccccc2)(c2ccccc2)c2ccccc2)C=C1
inactive: LXFL 529 3.63 µM | DLD-1 12.5 µM | KM-20L2 11.3 µM | M19-MEL 4.04 µM | DMS-114 4.65 µM | RXF 631 19.4 µM

Cc1cc(Br)ccc1/N=N/C1C(=O)ON=C1c1ccccc1 (stereo unspecified)
inactive: LXFL 529 69.5 µM | DLD-1 90.2 µM | KM-20L2 55.2 µM | M19-MEL 67.6 µM | DMS-114 65.6 µM | RXF 631 51.6 µM

COC(=O)C(/C(=N/NC(N)=O)C(=O)Nc1c(C)cccc1C(C)(C)C)c1nc2ccc(Cl)cc2nc1O (stereo unspecified)
inactive: LXFL 529 > 100 µM | DLD-1 > 100 µM | KM-20L2 > 100 µM | M19-MEL > 100 µM | DMS-114 > 100 µM

CC1OC(OCC2COC(O)(Oc3c(-c4ccc(O)c(O)c4)oc4cc(O)cc(O)c4c3=O)C(O)C2O)C(O)C(O)C1O (stereo unspecified)
inactive: LXFL 529 > 100 µM | DLD-1 > 100 µM | KM-20L2 > 100 µM | M19-MEL > 100 µM | DMS-114 > 100 µM | RXF 631 > 100 µM

Cn1c(O)c(C(=O)Nc2cccs2)c(=O)[nH]c1=S
inactive: LXFL 529 12.1 µM | DLD-1 21.2 µM | KM-20L2 19.7 µM | M19-MEL 19.1 µM | DMS-114 14.5 µM

COc1ccc(NC(=O)CCc2cc(-c3ccc(O)c(OC)c3)nc(NC#N)n2)cc1
inactive: LXFL 529 > 100 µM | DLD-1 > 100 µM | KM-20L2 > 100 µM | M19-MEL > 100 µM | DMS-114 > 100 µM

Clc1ccc(-c2nnc(-c3nn(-c4ccccc4)c4nc5ccccc5nc34)o2)cc1
inactive: LXFL 529 27.2 µM | DLD-1 18.9 µM | KM-20L2 > 100 µM | M19-MEL 70.6 µM | DMS-114 26.1 µM

COc1cc([N+](=O)[O-])ccc1NC(=O)c1cccc([N+](=O)[O-])c1O
inactive: LXFL 529 21.3 µM | DLD-1 16.1 µM | KM-20L2 27.5 µM | M19-MEL 24.6 µM | DMS-114 22.7 µM | RXF 631 30.8 µM

CC(=O)n1c(=O)c2cc3c(=O)n(-c4cccc(C#N)c4)c(=O)c3cc2c1=O
inactive: LXFL 529 > 100 µM | DLD-1 > 100 µM | KM-20L2 > 100 µM | M19-MEL > 100 µM | DMS-114 > 100 µM | RXF 631 > 100 µM

CS(=O)(=O)C1(Br)S(=O)(=O)OCCOS1(=O)=O
inactive: LXFL 529 > 100 µM | DLD-1 > 100 µM | KM-20L2 > 100 µM | M19-MEL > 100 µM | DMS-114 > 100 µM

COc1ccc(C2ON(c3ccccn3)CC=C2C)cc1 (stereo unspecified)
inactive: LXFL 529 > 100 µM | DLD-1 > 100 µM | KM-20L2 > 100 µM | M19-MEL > 100 µM | DMS-114 > 100 µM | RXF 631 > 100 µM

CSc1nc2nccnc2c(=O)[nH]1
inactive: LXFL 529 > 100 µM | DLD-1 > 100 µM | KM-20L2 > 100 µM | M19-MEL > 100 µM | DMS-114 > 100 µM

COc1cc(-c2nn3c(=O)n(-c4ccc(Cl)cc4)c(=O)nc3s2)cc(OC)c1OC
inactive: DLD-1 > 86.9 µM | KM-20L2 > 100 µM | M19-MEL > 100 µM | RXF 631 48.1 µM

COc1ccc(-c2oc(/C=N/c3ccccc3)c([N+](=O)[O-])c2-c2ccc(OC)c(OC)c2)cc1OC
inactive: LXFL 529 > 100 µM | DLD-1 > 100 µM | KM-20L2 > 100 µM | M19-MEL > 100 µM | DMS-114 > 100 µM

CCN(/N=C1\CC2C=CCN(C2)C(=O)Cc2c1[nH]c1ccccc21)S(=O)(=O)c1ccc(C)cc1 (stereo unspecified)
inactive: DLD-1 53.3 µM | KM-20L2 64.1 µM | M19-MEL 76.7 µM | DMS-114 64.6 µM | RXF 631 96.4 µM

C(=C\C(Sc1ccccc1)c1ccccc1)/NNC1=NN=C(c2ccccc2)C(c2ccccc2)N1 (stereo unspecified)
inactive: DLD-1 18.2 µM | KM-20L2 24.8 µM | M19-MEL 27.7 µM | DMS-114 35.8 µM | RXF 631 30.5 µM

CC1=NN(c2ccccc2)C(=O)C1C(=O)C(=O)Nc1ccc(C)cc1C (stereo unspecified)
inactive: LXFL 529 > 100 µM | DLD-1 > 100 µM | KM-20L2 > 100 µM | Hs-578T > 100 µM | M19-MEL > 100 µM | DMS-114 > 100 µM

O=[N+]([O-])C1C2C=CC(C2)[C@H]1c1ccco1 (stereo partly specified)
inactive: LXFL 529 > 100 µM | DLD-1 > 100 µM | KM-20L2 > 100 µM | M19-MEL > 100 µM | DMS-114 > 100 µM

COc1ccc(-c2cc(=O)c3c(O)cccc3o2)c(OC)c1OC
inactive: LXFL 529 99.5 µM | DLD-1 > 100 µM | KM-20L2 > 100 µM | M19-MEL > 100 µM | DMS-114 18.6 µM | RXF 631 66.8 µM

c1ccc(COc2ccc3[nH]c4c5c6ccccc6nc-5c[nH]c4c3c2)cc1
inactive: LXFL 529 16 µM | DLD-1 12.4 µM | KM-20L2 8.02 µM | DMS-114 16.6 µM

From ChEMBL document CHEMBL1201862, “PubChem BioAssay data set” (2004)
